From the supplement of paper PMC13380429

What was measured:
Caco-2 [1] = experiment: relative viability EC50 (midpoint between 100% and the lowest measured viability); higher = less toxic; conditions: 72 h
U2OS [2] = experiment: as above; conditions: 72 h
HepG2 [3] = experiment: as above; conditions: 72 h
Calu-3 [4] = experiment: as above; conditions: 72 h
Vero E6 [5] = experiment: as above; conditions: 72 h
Caco-2 [6] = experiment: drug sensitivity score (DSS) for viability; higher = more toxic; extreme values may be limits of the assay; conditions: 72 h
U2OS [7] = experiment: as above; conditions: 72 h
HepG2 [8] = experiment: as above; conditions: 72 h
Calu-3 [9] = experiment: as above; conditions: 72 h
Vero E6 [10] = experiment: as above; conditions: 72 h
Caco-2 [11] = experiment: cell viability relative to DMSO; higher = less toxic; conditions: 72 h
U2OS [12] = experiment: as above; conditions: 72 h
HepG2 [13] = experiment: as above; conditions: 72 h
Calu-3 [14] = experiment: as above; conditions: 72 h
Vero E6 [15] = experiment: as above; conditions: 72 h
[16] = system: A549-ACE2 infected with SARS-CoV-2; experiment: morphology score (similarity to uninfected cells); higher = more like uninfected cells; conditions: 24 h
A549-ACE2 [17] = experiment: drug-induced phospholipidosis relative to tamoxifen; higher = more phospholipidosis
[18] = system: A549-ACE2 infected with SARS-CoV-2; experiment: cell count relative to DMSO; higher = less toxic; conditions: 24 h
[19] = system: A549-ACE2 infected with SARS-CoV-2; experiment: SARS-CoV-2 infection rate relative to DMSO; higher = more infection; conditions: 24 h
A549-ACE2 [20] = experiment: phospholipidosis EC50; higher = less potent phospholipidosis inducer; conditions: 24 h

O=C1Cc2c([nH]c3ccc(Br)cc23)-c2ccccc2N1 [kenpaullone]
Conditions	drug sensitivity score	relative viability EC50 [µM]
Caco-2 [1]	–	> 10
Caco-2 [6]	0	–
Calu-3 [4]	–	> 10
Calu-3 [9]	0	–
HepG2 [3]	–	> 10
HepG2 [8]	0	–
U2OS [2]	–	> 10
U2OS [7]	0.3	–
Vero E6 [5]	–	> 10
Vero E6 [10]	0	–

Conditions	SARS-CoV-2 infection rate, [19] [%]	cell count, [18] [%]	cell viability, Caco-2 [11] [%]	cell viability, Calu-3 [14] [%]	cell viability, HepG2 [13] [%]	cell viability, U2OS [12] [%]	cell viability, Vero E6 [15] [%]	morphology score, [16]
1 nM	–	–	99.6	92.1	110	98.4	93.4	–
10 nM	–	–	93.2	95.1	96.2	98.9	93.6	–
100 nM	–	–	100	98.9	100	98.8	90.1	–
0.3 µM	106	103	–	–	–	–	–	0.06
1000 nM	–	–	102	113	108	104	101	–
3 µM	96	100	–	–	–	–	–	0.37
10000 nM	–	–	96	101	100	82.3	115	–
10 µM	94	85	–	–	–	–	–	0.47
30 µM	88	67	–	–	–	–	–	0.48

drug-induced phospholipidosis [%], A549-ACE2 [17]
Conditions	0.3 µM	0.833333 µM	3.33333 µM	6.66667 µM	10 µM	30 µM
24 h	-0.53	-1.07	-1.23	1.24	-0.93	4.23
48 h	1.47	-0.14	1.75	3.52	2.75	2.49
72 h	2.92	0.874	5.13	6.52	5.66	9.54

NC(=O)N1CCC(CC(=O)N2CCC([C@H]3c4ncc(Br)cc4CCc4cc(Cl)cc(Br)c43)CC2)CC1 [lonafarnib]
Conditions	drug sensitivity score	phospholipidosis EC50 [µM]	relative viability EC50 [µM]
A549-ACE2 [20]	–	7.17	–
Caco-2 [1]	–	–	1.29
Caco-2 [6]	5	–	–
Calu-3 [9]	6.3	–	–
HepG2 [3]	–	–	1.7
HepG2 [8]	4.4	–	–
U2OS [7]	2.6	–	–
Vero E6 [5]	–	–	> 10
Vero E6 [10]	0	–	–

Conditions	SARS-CoV-2 infection rate, [19] [%]	cell count, [18] [%]	cell viability, Caco-2 [11] [%]	cell viability, Calu-3 [14] [%]	cell viability, HepG2 [13] [%]	cell viability, U2OS [12] [%]	cell viability, Vero E6 [15] [%]	morphology score, [16]
1 nM	–	–	91.3	80.5	102	97.5	103	–
10 nM	–	–	106	91.2	98.7	100	94.1	–
100 nM	–	–	94.6	91.3	96.2	95	94.8	–
0.3 µM	97	98	–	–	–	–	–	0.19
1000 nM	–	–	79.7	72.6	89.5	92	93.3	–
3 µM	85	102	–	–	–	–	–	0.41
10000 nM	–	–	47.7	68.5	49.8	67.2	88.3	–
10 µM	71	94	–	–	–	–	–	0.69
30 µM	11	74	–	–	–	–	–	0.56

drug-induced phospholipidosis [%], A549-ACE2 [17]
Conditions	0.3 µM	0.833333 µM	3.33333 µM	6.66667 µM	10 µM	30 µM
24 h	11.7	7.58	19.6	27.3	40.9	50.3
48 h	16.3	10.1	20.5	30.3	36.1	–
72 h	15.9	12.2	29.3	42.5	51.2	–
